# Results: patent US7989165B2, “Tape stripping methods for analysis of skin disease and pathological skin state” (DermTech International, priority 2004, dated 2011)
# Where “and” joins values, the source holds several entries; their conditions need not be identical. Equal values may be shown once.
# Assays:
# Format in all cases: in vivo, human
# Krt-10 mRNA = assay: RT-PCR of keratin-10 mRNA relative to β-actin in SLS-irritated and control skin (tape and biopsy); parameters: key to ΔCt,Krt-10, Tape, SLS / ΔCt,Krt-10, Biopsy, SLS: ΔCt: keratin mRNA Ct normalized to β-actin Ct in same sample; settings: for ΔCt,Krt-10, Biopsy, SLS / ΔCt,Krt-10, Tape, SLS: 1% SLS occlusive patch 24 hours, mid-back, relative to β-actin, per subject 1-10 and Average; for ΔCt,Krt-10, Biopsy, SLS / Fold Increase Krt-10/β-actin mRNA vs. normal, Biopsy, SLS: biopsy RNA; for ΔCt,Krt-10, Biopsy, SLS / ΔCt,Krt-10, Tape, SLS / Fold Increase Krt-10/β-actin mRNA vs. normal, Biopsy, SLS / Fold Increase Krt-10/β-actin mRNA vs. normal, Tape, SLS: sulfate; for ΔCt,Krt-10, Tape, SLS / Fold Increase Krt-10/β-actin mRNA vs. normal, Tape, SLS: tape-stripped RNA; for Fold Increase Krt-10/β-actin mRNA vs. normal, Biopsy, SLS / Fold Increase Krt-10/β-actin mRNA vs. normal, Tape, SLS: 1% SLS patch 24 hours vs untreated skin, per subject and Average
# Text: (§1) The samples analyzed in this study are those described in the protocol performed by Wong et al. (Wong, Tran et al. 2004). […] Patches were removed and equivalent skin sites were biopsied and tape stripped as described in the Examples above. As an additional control, normal skin was also biopsied and tape stripped. Samples were processed for total RNA and assayed for keratin-10, keratin-16, keratin-17 and β-actin mRNA. The keratin mRNAs were normalized to β-actin mRNA in each sample. The semi-quantitative RT-PCR assay has been previously described (Wong, Tran et al. 2004).
# GAPDH mRNA = assay: Semi-quantitative RT-PCR of GAPDH mRNA relative to β-actin in SLS-occluded skin (tape and biopsy); settings: 1% SLS 24 h occluded skin, mean ± SD per subject, last line average, sulfate
# Text: Clinical protocols: The study protocols were reviewed and approved by an independent IRB (BioMed IRB, San Diego) and all subjects signed informed consent. Ten healthy women, ages 21-55 were enrolled in the study. Regions of unblemished, normal appearing skin on the mid back were chosen for the application of 2 occlusive patches in the form of bandages approximately 4 cm×6.5 cm. The bandages were made using a clear, non-porous plastic hypoallergenic adhesive tape. In the center of this tape was a Webril (non-woven cotton) patch measuring approximately 2 cm×4.5 cm. One Webril patch contained 0.6 ml of 1% aqueous sodium lauryl sulfate and the other contained 0.6 ml of sterile water as the vehicle control. […] The sites were scored by a trained technician using the scale provided below. […] In a second study, 3 subjects had 3 patches containing 1% SLS and 3 water patches applied to the mid back for 24 hours: Patches were removed, scored and tape stripped as above. […]
# Quantitative RT-PCR: 10 μl of RNA was reverse transcribed (RT) into cDNA with the Sensiscript Reverse Transcriptase kit and random hexamers in a final volume of […] according to the manufacturer's directions. […]
# Amplification and detection of specific mRNA: Specific mRNAs were converted to cDNA as described above. Specific cDNAs were semi-quantified using gene specific primer/probes (5′-nuclease assay) and fluorescence detection.
# [1] = tested on: gene expression levels in skin; assay: DNA microarray (Affymetrix HG-U133A GeneChip) of tape-harvested RNA, untreated vs water vs SLS-occluded skin; settings: threshold p=0.003, PPDE(p) 0.99
# Text: Clinical protocols: The study protocols were reviewed and approved by an independent IRB (BioMed IRB, San Diego) and all subjects signed informed consent. Ten healthy women, ages 21-55 were enrolled in the study. Regions of unblemished, normal appearing skin on the mid back were chosen for the application of 2 occlusive patches in the form of bandages approximately 4 cm×6.5 cm. The bandages were made using a clear, non-porous plastic hypoallergenic adhesive tape. In the center of this tape was a Webril (non-woven cotton) patch measuring approximately 2 cm×4.5 cm. One Webril patch contained 0.6 ml of 1% aqueous sodium lauryl sulfate and the other contained 0.6 ml of sterile water as the vehicle control. […] At 24 hours post application, the SLS and water patches were removed and the skin allowed to air dry for 15 minutes before scoring. The sites were scored by a trained technician using the scale provided below. Patched sites were large enough that two areas could be tape harvested without overlap and room left for a shave biopsy (˜2×2 mm). Skin sites were tape stripped with 4 tapes each and then a shave biopsy taken under local anesthetic (lidocaine HCl 1% and epinephrine 1:100,000; Abbott Laboratories). […] In a second study, 3 subjects had 3 patches containing 1% SLS and 3 water patches applied to the mid back for 24 hours: Patches were removed, scored and tape stripped as above. […]
# Krt-16 mRNA = assay: RT-PCR of keratin-16 mRNA relative to β-actin in SLS-irritated and control skin (tape and biopsy); parameters: key to ΔCt,Krt-16, Tape, SLS / ΔCt,Krt-16, Biopsy, SLS: ΔCt: keratin mRNA Ct normalized to β-actin Ct in same sample
# Text: as §1
structure (smiles),measurement,setting,value
"CCCCCCCCCCCCOS(=O)(=O)[O-].[Na+] [SLS, sodium lauryl sulfate]","ΔCt,Krt-10, Biopsy, SLS",Krt-10 mRNA,−4.28 and −0.24 and −3.09 and −6.35 and −4 and 0.4 and −2 and −2.7 and 1.91 and −5.97
same,"ΔCt,Krt-10, Biopsy, SLS",Krt-10 mRNA; mean,−2.63
same,"ΔCt,Krt-10, Tape, SLS",Krt-10 mRNA,−2.76 and 3.68 and 8.19 and −0.3 and 0.93 and 5.1 and 1.03 and 4.17 and 3.81 and −0.81
same,"ΔCt,Krt-10, Tape, SLS",Krt-10 mRNA; mean,2.30
same,"Fold Increase Krt-10/β-actin mRNA vs. normal, Biopsy, SLS",Krt-10 mRNA,0.15 fold and 0.01 fold (2×) and 0.06 fold (2×) and 0.65 fold and 0.1 fold and 0.03 fold and <0.001 fold and 0.57 fold
same,"Fold Increase Krt-10/β-actin mRNA vs. normal, Biopsy, SLS",Krt-10 mRNA; mean,0.05 fold
same,"Fold Increase Krt-10/β-actin mRNA vs. normal, Tape, SLS",Krt-10 mRNA,1.55 fold and 0.03 fold and <0.001 fold and 0.01 fold (3×) and 0.31 fold and 1.22 fold
same,"Fold Increase Krt-10/β-actin mRNA vs. normal, Tape, SLS",Krt-10 mRNA; mean,0.06 fold
same,average decrease in K10 expression,"Krt-10 mRNA; SLS treatment vs untreated skin, tape and biopsy virtually identical",~20 fold
same,"ΔCt,GAPDH (Ct,GAPDH − Ct,actin), Biopsy",GAPDH mRNA; shave biopsy RNA,1.44 ± 0.11 and 1.68 ± 0.09 and 1.78 ± 0.10 and 2.33 ± 0.07 and 1.73 ± 0.09 and 1.54 ± 0.10 and 3.25 ± 0.08 and 1.05 ± 0.07 and 1.61 ± 0.11 and 1.95 ± 0.08
same,"ΔCt,GAPDH (Ct,GAPDH − Ct,actin), Tape",GAPDH mRNA; tape-harvested RNA,3.02 ± 0.08 and 2.28 ± 0.10 and 3.15 ± 0.15 and 2.87 ± 0.10 and 2.68 ± 0.09 and 3 ± 0.11 and 2.85 ± 0.15 and 2.46 ± 0.08 and 2.78 ± 0.44 and 2.56 ± 0.11
same,"number of genes differentially expressed, SLS vs water treated",[1],"1,364 genes"
same,"ΔCt,Krt-16, Biopsy, SLS","Krt-16 mRNA; 1% SLS occlusive patch 24 hours, mid-back, biopsy RNA, relative to β-actin, per subject 1-10 and Average, sulfate",0.97 and −2.43 and −2.21 and 1.41 and −1.12 and −1.75 and −2.01 and −1.79 and 0.74 and −0.32
same,"ΔCt,Krt-16, Tape, SLS","Krt-16 mRNA; 1% SLS occlusive patch 24 hours, mid-back, tape-stripped RNA, relative to β-actin, per subject 1-10 and Average, sulfate",−4.51 and 3.04 and 3.96 and −2.87 and 0.53 (2×) and 3.1 and 4.32 and 2.87 and −0.97
same,"Fold Increase Krt-16/actin mRNA ratio vs. normal, Biopsy, SLS","Krt-16 mRNA; 1% SLS patch 24 hours vs untreated skin, biopsy RNA, per subject and Average, sulfate",14.73 fold and 76.61 fold and 55.14 fold and 18.4 fold and 30.85 fold and 113.69 fold and 108.78 fold and 82.98 fold and 8.57 fold and 24.78 fold
same,"Fold Increase Krt-16/actin mRNA ratio vs. normal, Tape, SLS","Krt-16 mRNA; 1% SLS patch 24 hours vs untreated skin, tape-stripped RNA, per subject and Average, sulfate",1.25 fold and 0.03 fold and 0.01 fold and 0.2 fold and 0.02 fold and 0.04 fold and 0.17 fold
same,"average decrease in K16 expression, tape",Krt-16 mRNA; SLS-treated skin vs untreated,9 fold
same,"average fold-increase of K16 mRNA expression, biopsy",Krt-16 mRNA; SLS-treated skin vs untreated,39 fold
